Results as given in publication PMC12362783 (Advanced Science, 2025).
Read-outs that look alike come from different tables or passages of the source.

What was measured:
[1] = tested on: MDA‐MB‐436; assay: Cell growth inhibition, CellTiter‐Glo (CTG); type: cell-based; conditions: CTG, 5 days, n = 3
Protocol: (§1) All cells were grown in a humidified incubator at 37 °C and 5% CO2.
(§2) Growth viability was determined by the CellTiter‐Glo luminescent viability assay (Promega) 5 days after drug treatment. Cell viability was measured immediately after dosing (Day 0) and after 5 days of incubation using CellTiter‐Glo (CTG, Promega, G7573). Relative viability was calculated by normalizing the raw luminescence counts of the treated groups to those of the DMSO control groups. IC₅₀ values were calculated using sigmoidal dose‐response curve fitting with GraphPad Prism 9.0 software.

[2] = tested on: MDA‐MB‐231; assay: Cell growth inhibition, CellTiter‐Glo (CTG); type: cell-based; conditions: Homo sapiens, MDA-MB-231, 120 h, read-out: IC50 MDA‐MB‐231; CTG, 5 days, n = 3
Protocol: as §1
(§3) […] […] Relative viability was calculated by normalizing the raw luminescence counts of the treated groups to those of the DMSO control groups. IC₅₀ values were calculated using sigmoidal dose‐response curve fitting with GraphPad Prism 9.0 software.

[3] = tested on: MDA‐MB‐468; assay: Cell growth inhibition, CellTiter‐Glo (CTG); type: cell-based; conditions: Homo sapiens, MDA-MB-468, 120 h; CTG, 5 days, n = 3
Protocol: as §1, §3

[4] = tested on: MCF‐7; assay: Cell growth inhibition, CellTiter‐Glo (CTG); type: cell-based; conditions: Homo sapiens, MCF7; n = 3
Protocol: as §2

[5] = tested on: MDA‐MB‐453; assay: Cell growth inhibition, CellTiter‐Glo (CTG); type: cell-based; conditions: Homo sapiens
Protocol: as §2

[6] = tested on: MCF‐10A; assay: Cell growth inhibition, normal breast cell line; type: cell-based; conditions: Homo sapiens, MCF-10A; @30 µM; read-out: MCF‐10A inhibitory rate at certain concentration
Protocol: as §2

[7] = tested on: MDA‐MB‐468 cells; assay: Cell cycle assay, flow cytometry (PI); type: cell-based; conditions: MDA‐MB‐468, 48 h; A7, B8 0.5 and 1.0 µM, controls 1.0 µM
Protocol: (§4) The cell cycle analysis was performed with cells seeded in 6‐well plates in growth media. The cells were allowed to attach overnight (8 h). The cultures were treated with different tested drugs for 48 h. After treatment, cells were collected and fixed with 70% pre‐cold ethanol in PBS and stored at −20 °C overnight. Then washed the cells with PBS twice, and incubated with 100 µg mL^−1 RNase A at 37 °C for 1 h, stained with propidium iodide for 30 min avoid light at room temperature. The stained cells were analyzed by flow cytometry. The percentages of cells in the G1, S, and G2/M phases were determined. The data were analyzed by FlowJo software (Tree Star, Inc., Ashland, OR).

[8] = tested on: MDA‐MB‐231 cells; assay: Cell cycle assay, flow cytometry (PI); type: cell-based; conditions: MDA‐MB‐231, 48 h; A7, B8 0.5 and 1.0 µM, controls 1.0 µM
Protocol: as §4

[9] = tested on: TNBC cells (MDA‐MB‐231, MDA‐MB‐468, MDA‐MB‐436); assay: Anti‐proliferative activity across three TNBC cell lines (summary); type: cell-based
Protocol: as §2, with “Cells were grown at 37 °C, under 95% air and 5% CO₂ until they reached about 70% confluence and were subcultured at least twice before the experiment. Cells were seeded at a density of 1000 cells/well in two 384‐well white plates, and the plates were placed in a 5% CO₂ incubator overnight. Growth” for “Growth”

[10] = target: T1, ATR (Homo sapiens, UniProt Q13535); assay: ATR kinase inhibition, Mobility Shift Assay; type: biochemical; conditions: for IC50: n = 3, mean ± SD
T1 construct: purchased Eurofins 14-953
Protocol: The in vitro ATR kinase inhibitory activities were determined by ChemPartner Co., Ltd. (Shanghai, China) using the Mobility Shift Assay. The tested compound was dissolved with DMSO and diluted to 1000/3 × of the final desired highest inhibitor concentration in the reaction. […] The assay wells were incubated at 28 °C for 4 h.

[11] = target: PARP1 (Homo sapiens, UniProt P09874); assay: PARP enzymatic inhibition ELISA (PARP1); type: biochemical; conditions: for IC50: n = 3, mean ± SD
Protocol: The PARP activity assay was performed by ChemPartner (Shanghai, China). Each well was precoated with histone (final conc.: 100 ng mL^−1) diluted in PBS buffer (contains 10 mmol L^−1 NaH2PO4 and 150 mmol L^−1 NaCl, pH 7.4) by incubation at 4 °C overnight. […] The reaction was initiated by the addition of 10 µL of PARP (final conc.: 0.007 nM/well) at room temperature for 60 min. Add 20 µL of anti‐Poly/Mono‐ADP Ribose Rabbit mAb. Incubate for 1.5 h at room temperature and wash the plate three times using PBST buffer. […] Incubate for 1 h at room temperature and wash the plate three times using PBST buffer. Add 25 µL Femto‐ECL Substrate A and Femto‐ECL Substrate B (1:1) mix. Immediately read chemiluminescence on Envision (Revvity, USA).

[12] = tested on: MDA‐MB‐468 cells; assay: Cell apoptosis assay, Annexin V‐FITC/PI; type: cell-based; conditions: MDA‐MB‐468, 72 h
Protocol: (§5) The cell apoptosis analysis was performed with cells seeded in 6‐well plates in growth media. The cells were allowed to attach overnight (8 h). The cultures were treated with different tested drugs for 72 h and evaluated using an Annexin V Flow Kit (BioLegend#B367750) according to the manufacturer's instructions. The data were analyzed by FlowJo software (Tree Star, Inc., Ashland, OR).

[13] = tested on: MDA‐MB‐231 cells; assay: Cell apoptosis assay, Annexin V‐FITC/PI; type: cell-based; conditions: MDA‐MB‐231, 72 h
Protocol: as §5

[14] = Homo sapiens, MDA-MB-436, 120 h

T1 sequence (Q13535 whole entry): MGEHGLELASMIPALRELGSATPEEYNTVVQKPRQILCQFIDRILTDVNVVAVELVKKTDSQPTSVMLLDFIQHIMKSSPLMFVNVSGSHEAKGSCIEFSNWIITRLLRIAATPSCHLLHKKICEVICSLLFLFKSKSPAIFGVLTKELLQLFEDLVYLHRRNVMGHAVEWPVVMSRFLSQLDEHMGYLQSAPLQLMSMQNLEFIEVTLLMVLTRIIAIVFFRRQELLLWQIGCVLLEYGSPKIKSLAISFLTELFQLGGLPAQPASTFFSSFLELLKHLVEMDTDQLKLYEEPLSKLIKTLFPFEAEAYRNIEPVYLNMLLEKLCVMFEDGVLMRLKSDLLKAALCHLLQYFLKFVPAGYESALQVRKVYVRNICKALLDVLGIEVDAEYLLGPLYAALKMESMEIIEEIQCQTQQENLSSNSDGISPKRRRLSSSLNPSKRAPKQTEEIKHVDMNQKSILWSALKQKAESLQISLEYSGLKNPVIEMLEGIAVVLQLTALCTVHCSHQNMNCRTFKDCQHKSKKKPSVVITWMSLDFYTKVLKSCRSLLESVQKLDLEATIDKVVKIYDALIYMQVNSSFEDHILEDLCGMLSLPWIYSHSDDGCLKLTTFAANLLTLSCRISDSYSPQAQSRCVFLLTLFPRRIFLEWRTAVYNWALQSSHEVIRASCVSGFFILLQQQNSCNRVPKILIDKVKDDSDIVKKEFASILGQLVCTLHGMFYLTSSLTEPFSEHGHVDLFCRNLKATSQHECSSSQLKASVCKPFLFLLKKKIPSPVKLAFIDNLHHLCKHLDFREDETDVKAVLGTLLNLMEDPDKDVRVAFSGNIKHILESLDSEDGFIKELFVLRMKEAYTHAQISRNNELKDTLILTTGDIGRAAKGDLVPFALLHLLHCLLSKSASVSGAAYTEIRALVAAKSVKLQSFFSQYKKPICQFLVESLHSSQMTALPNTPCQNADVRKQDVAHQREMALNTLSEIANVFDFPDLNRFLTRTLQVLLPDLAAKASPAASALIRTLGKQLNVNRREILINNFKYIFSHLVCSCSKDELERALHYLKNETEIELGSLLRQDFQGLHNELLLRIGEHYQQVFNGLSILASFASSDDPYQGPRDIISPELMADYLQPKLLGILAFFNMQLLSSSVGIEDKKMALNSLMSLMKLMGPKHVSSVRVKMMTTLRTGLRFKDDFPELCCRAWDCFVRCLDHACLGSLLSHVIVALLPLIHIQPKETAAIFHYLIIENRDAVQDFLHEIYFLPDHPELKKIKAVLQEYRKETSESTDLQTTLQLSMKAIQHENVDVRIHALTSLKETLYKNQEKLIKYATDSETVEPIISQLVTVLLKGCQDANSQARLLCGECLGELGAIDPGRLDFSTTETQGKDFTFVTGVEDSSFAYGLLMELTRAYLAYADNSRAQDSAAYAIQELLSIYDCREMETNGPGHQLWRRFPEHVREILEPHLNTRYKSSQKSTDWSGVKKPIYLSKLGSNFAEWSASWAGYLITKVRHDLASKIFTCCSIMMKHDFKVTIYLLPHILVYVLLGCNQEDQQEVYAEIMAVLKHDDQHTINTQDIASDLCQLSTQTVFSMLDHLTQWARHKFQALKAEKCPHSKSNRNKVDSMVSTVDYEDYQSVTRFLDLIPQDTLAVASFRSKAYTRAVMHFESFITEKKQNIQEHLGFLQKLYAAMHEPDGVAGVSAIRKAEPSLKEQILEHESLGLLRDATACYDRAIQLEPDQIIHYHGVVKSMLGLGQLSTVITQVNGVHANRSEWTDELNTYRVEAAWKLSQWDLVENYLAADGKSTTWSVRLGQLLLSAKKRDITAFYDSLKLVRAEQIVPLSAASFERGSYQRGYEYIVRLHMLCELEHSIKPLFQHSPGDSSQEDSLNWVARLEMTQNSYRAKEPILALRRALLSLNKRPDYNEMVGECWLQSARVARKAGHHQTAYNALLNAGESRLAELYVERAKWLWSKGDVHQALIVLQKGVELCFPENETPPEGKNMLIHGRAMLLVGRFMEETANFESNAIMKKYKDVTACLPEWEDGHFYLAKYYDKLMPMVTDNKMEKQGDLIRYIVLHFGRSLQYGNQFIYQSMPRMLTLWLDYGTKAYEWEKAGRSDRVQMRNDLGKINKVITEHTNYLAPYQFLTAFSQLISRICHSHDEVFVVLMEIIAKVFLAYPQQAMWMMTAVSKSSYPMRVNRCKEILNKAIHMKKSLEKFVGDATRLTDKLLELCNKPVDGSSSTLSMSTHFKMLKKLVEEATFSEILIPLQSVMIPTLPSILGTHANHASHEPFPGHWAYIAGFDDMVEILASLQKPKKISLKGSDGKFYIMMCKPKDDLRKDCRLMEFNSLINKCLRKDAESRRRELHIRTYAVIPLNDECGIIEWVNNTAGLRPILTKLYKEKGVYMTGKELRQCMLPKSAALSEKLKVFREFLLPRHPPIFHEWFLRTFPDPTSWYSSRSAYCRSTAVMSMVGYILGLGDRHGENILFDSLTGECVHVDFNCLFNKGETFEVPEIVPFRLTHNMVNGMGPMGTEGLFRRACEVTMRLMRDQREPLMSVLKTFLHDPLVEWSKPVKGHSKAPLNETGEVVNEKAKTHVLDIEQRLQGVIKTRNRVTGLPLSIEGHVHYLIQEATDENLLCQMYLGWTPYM
T1 sequence (Q8WXE1 whole entry partner): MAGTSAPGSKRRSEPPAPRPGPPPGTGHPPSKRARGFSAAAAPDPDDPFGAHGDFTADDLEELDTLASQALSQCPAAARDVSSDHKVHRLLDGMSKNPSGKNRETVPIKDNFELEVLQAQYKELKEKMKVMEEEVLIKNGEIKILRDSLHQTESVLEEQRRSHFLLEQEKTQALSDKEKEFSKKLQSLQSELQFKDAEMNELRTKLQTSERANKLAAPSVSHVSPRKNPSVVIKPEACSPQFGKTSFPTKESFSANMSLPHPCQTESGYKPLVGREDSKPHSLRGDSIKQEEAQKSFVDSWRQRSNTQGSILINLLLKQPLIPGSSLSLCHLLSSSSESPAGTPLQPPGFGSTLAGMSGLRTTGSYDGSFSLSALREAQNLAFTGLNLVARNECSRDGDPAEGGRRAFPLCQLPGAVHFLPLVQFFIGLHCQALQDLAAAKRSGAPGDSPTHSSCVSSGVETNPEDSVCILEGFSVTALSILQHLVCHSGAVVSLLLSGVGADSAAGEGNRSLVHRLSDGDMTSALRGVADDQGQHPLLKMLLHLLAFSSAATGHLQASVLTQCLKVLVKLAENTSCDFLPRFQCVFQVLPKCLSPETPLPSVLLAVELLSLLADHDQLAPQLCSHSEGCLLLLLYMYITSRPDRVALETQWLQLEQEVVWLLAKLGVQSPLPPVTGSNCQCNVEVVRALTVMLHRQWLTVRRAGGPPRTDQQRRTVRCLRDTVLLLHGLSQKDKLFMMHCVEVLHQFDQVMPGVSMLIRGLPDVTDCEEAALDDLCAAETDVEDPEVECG
Sequence of PARP1 (P09874 whole entry): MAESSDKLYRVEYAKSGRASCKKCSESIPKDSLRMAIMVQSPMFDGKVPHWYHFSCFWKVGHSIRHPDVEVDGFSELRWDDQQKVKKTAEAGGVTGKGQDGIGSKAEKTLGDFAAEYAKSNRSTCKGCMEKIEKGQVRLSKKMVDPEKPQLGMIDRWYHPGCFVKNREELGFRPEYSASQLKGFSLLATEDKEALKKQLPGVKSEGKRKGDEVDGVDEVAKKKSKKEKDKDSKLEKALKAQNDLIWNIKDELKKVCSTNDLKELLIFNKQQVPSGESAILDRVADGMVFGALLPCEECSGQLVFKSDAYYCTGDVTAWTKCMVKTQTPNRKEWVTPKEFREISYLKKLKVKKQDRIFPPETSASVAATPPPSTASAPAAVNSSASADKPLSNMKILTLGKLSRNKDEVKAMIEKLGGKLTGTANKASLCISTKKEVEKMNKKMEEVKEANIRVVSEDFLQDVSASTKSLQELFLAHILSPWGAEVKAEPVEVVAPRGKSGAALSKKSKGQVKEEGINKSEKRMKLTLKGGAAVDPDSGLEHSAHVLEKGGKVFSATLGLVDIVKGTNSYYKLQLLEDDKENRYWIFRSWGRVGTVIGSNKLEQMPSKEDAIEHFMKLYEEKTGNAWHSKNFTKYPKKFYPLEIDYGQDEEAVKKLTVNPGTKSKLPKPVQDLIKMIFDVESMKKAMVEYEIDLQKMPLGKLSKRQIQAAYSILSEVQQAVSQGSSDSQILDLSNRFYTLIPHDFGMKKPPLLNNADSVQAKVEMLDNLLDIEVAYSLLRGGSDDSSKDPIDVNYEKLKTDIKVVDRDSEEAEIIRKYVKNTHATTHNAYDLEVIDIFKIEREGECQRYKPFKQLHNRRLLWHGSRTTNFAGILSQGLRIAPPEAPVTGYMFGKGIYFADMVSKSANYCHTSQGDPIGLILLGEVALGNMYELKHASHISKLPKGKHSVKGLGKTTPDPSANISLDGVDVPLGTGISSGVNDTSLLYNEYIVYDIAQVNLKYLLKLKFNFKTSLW

Row | Structure (SMILES) | activity against ATR (SAR summary in words, Figure 7) [10] | IC50 [10] | activity against PARP1 (SAR summary in words, Figure 7) [11] | IC50 [11] | IC50 [1] | IC50 [1, 14] | IC50 [2] | IC50 [3] | IC50 [4] | IC50 ([5]; MDA-MB-453, read-out: IC50 MAD‐MB‐453) | inhibition at 30 µM [6] | effect on cell cycle distribution [7] | effect on cell cycle distribution [8] | IC50 ([5]; MDA-MB-453, n = 3, read-out: IC50 MAD‐MB‐453) | activity against TNBC cells (SAR summary in words, Figure 7) [9] | ability to induce apoptosis vs combination of AZD6738 and Olaparib [12] | ability to induce apoptosis vs combination of AZD6738 and Olaparib [13]
1 | O=C(c1cc(Cc2n[nH]c(=O)c3ccccc23)ccc1F)N1CCN(C(=O)C2CC2)CC1 [1 (Olaparib), Olaparib, reference compound] | – | – | – | – | 4530 ± 210 nM | 4500 nM | 21900 ± 2360 nM | 10500 ± 590 nM | > 30000 nM | > 30000 nM | 14.5% | did not significantly change the cell cycle distribution | did not significantly change the cell cycle distribution | – | – | – | –
2 | C[C@@H]1COCCN1c1cc(C2([S@](C)(=N)=O)CC2)nc(-c2cc[nH]c3nccc2-3)n1 [8 (AZD6738), Ceralasertib, reference compound] | – | – | – | – | 3840 ± 520 nM | 3800 nM | – | 18600 ± 1750 nM | 2010 ± 430 nM | – | 25.9% | did not significantly change the cell cycle distribution | – | 1460 ± 170 nM | – | – | –
3 | C[C@@H]1COCCN1c1cc(C2(NC(=O)c3cc(Cc4n[nH]c(=O)c5ccccc45)ccc3F)CC2)nc(-c2ccnc3[nH]ccc23)n1 [Compound A1, (R)‐2‐fluoro‐N‐(1‐(6‐(3‐methylmorpholino)‐2‐(1H‐pyrrolo[2,3‐b]pyridin‐4‐yl)pyrimidin‐4‐yl)cyclopropyl)‐5‐((4‐oxo‐3,4‐dihydrophthalazin‐1‐yl)methyl)benzamide] | moderate activity | 215 ± 22 nM | moderate activity | 1150 ± 43 nM | – | 2920 ± 2050 nM | 5260 ± 1140 nM | 8540 ± 1070 nM | – | – | – | – | – | – | weak activity | – | –
4 | C[C@@H]1COCCN1c1cc(C2(NC(=O)c3ccc(C(=O)N4CCN(C(=O)c5cc(Cc6n[nH]c(=O)c7ccccc67)ccc5F)CC4)cc3)CC2)nc(-c2ccnc3[nH]ccc23)n1 [Compound A7, (R) ‐4‐(4‐(2‐fluoro‐5‐((4‐oxo‐3,4‐dihydrophthalazin‐1‐yl)methyl)benzoyl)piperazine‐1‐carbonyl)‐N‐(1‐(6‐(3‐methylmorpholino)‐2‐(1H‐pyrrolo[2,3‐b]pyridin‐4‐yl)pyrimidin‐4‐yl)cyclopropyl)benzamide] | – | 43 ± 7 nM | – | 0.56 ± 0.21 nM | – | 15 ± 1 nM | 13400 ± 3440 nM | 230 ± 70 nM | – | – | – | did not demonstrate any significant effects on the cell cycle | did not demonstrate any significant effects on the cell cycle | – | – | does not show a significant enhancement | does not show a significant enhancement

Continued, in another order:

Row | activity against ATR (SAR summary in words, Figure 7) [10] | IC50 [10] | activity against PARP1 (SAR summary in words, Figure 7) [11] | IC50 [11] | Structure (SMILES) | IC50 [1] | IC50 [1, 14] | IC50 [2] | IC50 [3] | IC50 [4] | IC50 ([5]; MDA-MB-453, read-out: IC50 MAD‐MB‐453) | inhibition at 30 µM [6] | effect on cell cycle distribution [7] | effect on cell cycle distribution [8] | IC50 ([5]; MDA-MB-453, n = 3, read-out: IC50 MAD‐MB‐453) | activity against TNBC cells (SAR summary in words, Figure 7) [9] | ability to induce apoptosis vs combination of AZD6738 and Olaparib [12] | ability to induce apoptosis vs combination of AZD6738 and Olaparib [13]
5 | moderate activity | 39.5 ± 3.7 nM | moderate activity | 420 ± 31 nM | C[C@@H]1COCCN1c1cc(CNC(=O)c2cc(Cc3n[nH]c(=O)c4ccccc34)ccc2F)nc(-c2ccnc3[nH]ccc23)n1 [Compound B1, (R)‐2‐fluoro‐N‐((6‐(3‐methylmorpholino)‐2‐(1H‐pyrrolo[2,3‐b]pyridin‐4‐yl)pyrimidin‐4‐yl)methyl)‐5‐((4‐oxo‐3,4‐dihydrophthalazin‐1‐yl)methyl)benzamide] | – | 910 ± 50 nM | 3050 ± 760 nM | 7880 ± 1140 nM | – | – | – | – | – | – | weak activity | – | –
6 | – | 36.7 ± 4.6 nM | – | 1.2 ± 0.3 nM | C[C@@H]1COCCN1c1cc(CNC(=O)C2CCN(C(=O)c3cc(Cc4n[nH]c(=O)c5ccccc45)ccc3F)CC2)nc(-c2ccnc3[nH]ccc23)n1 [Compound B5, (R)‐1‐(2‐fluoro‐5‐((4‐oxo‐3,4‐dihydrophthalazin‐1‐yl)methyl)benzoyl)‐N‐((6‐(3‐methylmorpholino)‐2‐(1H‐pyrrolo[2,3‐b]pyridin‐4‐yl)pyrimidin‐4‐yl)methyl)piperidine‐4‐carboxamide] | – | 1190 ± 230 nM | 4480 ± 1080 nM | 1460 ± 100 nM | – | – | – | – | – | – | – | – | –
7 | – | 112 ± 5.3 nM | – | 0.46 ± 0.1 nM | C[C@@H]1COCCN1c1cc(CNS(=O)(=O)C2CCN(C(=O)c3cc(Cc4n[nH]c(=O)c5ccccc45)ccc3F)CC2)nc(-c2ccnc3[nH]ccc23)n1 [Compound B6, (R)‐1‐(2‐fluoro‐5‐((4‐oxo‐3,4‐dihydrophthalazin‐1‐yl)methyl)benzoyl)‐N‐((6‐(3‐methylmorpholino)‐2‐(1H‐pyrrolo[2,3‐b]pyridin‐4‐yl)pyrimidin‐4‐yl)methyl)piperidine‐4‐sulfonamide] | – | 780 ± 80 nM | 3960 ± 2050 nM | 700 ± 70 nM | – | – | – | – | – | – | – | – | –
8 | – | 78.8 ± 6.2 nM | – | 0.76 ± 0.09 nM | C[C@@H]1COCCN1c1cc(CNC(=O)N2CCN(C(=O)c3cc(Cc4n[nH]c(=O)c5ccccc45)ccc3F)CC2)nc(-c2ccnc3[nH]ccc23)n1 [Compound B7, (R)‐4‐(2‐fluoro‐5‐((4‐oxo‐3,4‐dihydrophthalazin‐1‐yl)methyl)benzoyl)‐N‐((6‐(3‐methylmorpholino)‐2‐(1H‐pyrrolo[2,3‐b]pyridin‐4‐yl)pyrimidin‐4‐yl)methyl)piperazine‐1‐carboxamide] | – | 1290 ± 560 nM | 1600 ± 90 nM | 960 ± 40 nM | – | – | – | – | – | – | – | – | –
